Measured values taken from US7160888B2, “[1,8]naphthyridin-2-ones and related compounds for the treatment of schizophrenia” (Warner Lambert Company LLC, priority 2003, dated 2007).

Molecular target: D2 receptor (Homo sapiens, UniProt P14416)
Assay: [3H]Thymidine uptake assay for D2 intrinsic activity
Format: cell-based
Conditions: test compound 1 μM, 1 μM Quinpirole = 100% intrinsic activity

D2 receptor, sequence (P14416 whole entry): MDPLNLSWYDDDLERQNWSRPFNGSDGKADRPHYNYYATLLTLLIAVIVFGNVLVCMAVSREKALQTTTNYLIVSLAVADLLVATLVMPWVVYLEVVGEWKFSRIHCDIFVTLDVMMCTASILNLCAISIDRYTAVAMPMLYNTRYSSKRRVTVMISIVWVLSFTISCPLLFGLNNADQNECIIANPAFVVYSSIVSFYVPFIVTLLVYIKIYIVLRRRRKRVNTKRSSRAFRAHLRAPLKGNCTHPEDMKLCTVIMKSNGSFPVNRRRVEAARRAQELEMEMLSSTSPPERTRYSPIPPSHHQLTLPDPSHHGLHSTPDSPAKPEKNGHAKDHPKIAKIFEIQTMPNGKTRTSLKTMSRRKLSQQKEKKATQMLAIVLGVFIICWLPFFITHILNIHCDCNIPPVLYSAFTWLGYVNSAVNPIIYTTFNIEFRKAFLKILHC

`O=C1NCc2ccc(OCCCCN3CCN(c4cccc5c4OCCCO5)CC3)nc2N1` [Example E4′, 7-{4-[4-(3,4-Dihydro-2H-benzo[b][1,4]dioxepin-6-yl)-piperazin-1-yl]-butoxy}-3,4-dihydro-1H-pyrido[2,3-d]pyrimidin-2-one] gave an Emax at 1 µM (Table 2) of 26%.
`CC1(C)CC(=O)Nc2nc(OCCCCN3CCN(c4cccc5c4OCCC5)CC3)ccc21` [Example C6′, 7-[4-(4-Chroman-8-yl-piperazin-1-yl)-butoxy]-4,4-dimethyl-3,4-dihydro-1H-[1,8]naphthyridin-2-one] was tested, and the Emax at 1 µM (Table 2) was 24%.
With `COc1ccc2c(N3CCN(CCCCOc4ccc5c(n4)NC(=O)CC5)CC3)cccc2n1` [Example A43′, 7-{4-[4-(2-Methoxy-quinolin-5-yl)-piperazin-1-yl]-butoxy}-3,4-dihydro-1H-[1,8]naphthyridin-2-one] the Emax at 1 µM (Table 2) was 32%.
With `O=C1CCc2ccc(OCCCCN3CCN(c4cccc5c4C(=O)CCC5)CC3)nc2N1` [Example A51, 7-{4-[4-(8-Oxo-5,6,7,8-tetrahydro-naphthalen-1-yl)-piperazin-1-yl]-butoxy}-3,4-dihydro-1H-[1,8]naphthyridin-2-one] the Emax at 1 µM (Table 1) was 20%.
With `CC1CC(=O)Nc2nc(OCCCCN3CCN(c4cccc(Cl)c4Cl)CC3)ccc21` (single isomer, unassigned) [Example D2a, 7-{4-[4-(2,3-Dichloro-phenyl)-piperazin-1-yl]-butoxy}-4-methyl-3,4-dihydro-1H-[1,8]naphthyridin-2-one] the Emax at 1 µM (Table 1) was 20%.
Work on `CC1(C)Cc2cccc(N3CCN(CCCCOc4ccc5ccc(=O)[nH]c5n4)CC3)c2O1` [Example B9′, 7-{4-[4-(2,2-Dimethyl-2,3-dihydro-benzofuran-7-yl)-piperazin-1-yl]-butoxy}-1H-[1,8]naphthyridin-2-one] yielded an Emax at 1 µM (Table 2) of 40%.
`O=C1CCc2ccc(OCCCCN3CCN(c4cccc5c(Cl)cccc45)CC3)nc2N1` [Example A75, 7-{4-[4-(5-Chloro-naphthalen-1-yl)-piperazin-1-yl]-butoxy}-3,4-dihydro-1H-[1,8]naphthyridin-2-one] was tested, and the Emax at 1 µM (Table 1) was 36%.
Compound `O=c1ccc2ccc(OCCCCN3CCN(c4cccc(F)c4Cl)CC3)nc2[nH]1` [Example B28, 7-{4-[4-(2-Chloro-3-fluoro-phenyl)-piperazin-1-yl]-butoxy}-1H-[1,8]naphthyridin-2-one] has an Emax at 1 µM (Table 1) of 31%.
With `Cc1cccc(N2CCN(CCCCOc3ccc4c(n3)NC(=O)CC4(C)C)CC2)c1Cl` [Example D20, 7-{4-[4-(2-Chloro-3-methyl-phenyl)-piperazin-1-yl]-butoxy}-4,4-dimethyl-3,4-dihydro-1H-[1,8]naphthyridin-2-one] the Emax at 1 µM (Table 1) was 44%.
`O=c1ccc2ccc(OCCCCN3CCN(c4cccc5ccc(Cl)cc45)CC3)nc2[nH]1` [Example B56, 7-{4-[4-(7-Chloro-naphthalen-1-yl)-piperazin-1-yl]-butoxy}-1H-[1,8]naphthyridin-2-one] showed an Emax at 1 µM (Table 1) of 28%.
Compound `O=C1CCCc2cccc(N3CCN(CCCCOc4ccc5ccc(=O)[nH]c5n4)CC3)c21` [Example B35, 7-{4-[4-(8-Oxo-5,6,7,8-tetrahydro-naphthalen-1-yl)-piperazin-1-yl]-butoxy}-1H-[1,8]naphthyridin-2-one] has an Emax at 1 µM (Table 1) of 20%.
`Cc1cc(N2CCN(CCCCOc3ccc4c(n3)NC(=O)CC4)CC2)c(Cl)cc1F` [Example A13, 7-{4-[4-(2-Chloro-4-fluoro-5-methyl-phenyl)-piperazin-1-yl]-butoxy}-3,4-dihydro-1H-[1,8]naphthyridin-2-one] was tested, and the Emax at 1 µM (Table 1) was 21%.
With `Cc1nc(OCCCCN2CCN(c3cccc4c3OCC4)CC2)nc2[nH]c(=O)ccc12` [Example G11′, 2-{4-[4-(2,3-Dihydro-benzofuran-7-yl)-piperazin-1-yl]-butoxy}-4-methyl-8H-pyrido[2,3-d]pyrimidin-7-one] the Emax at 1 µM (Table 2) was 39%.
`O=C1CCc2cnc(OCCCCN3CCN(c4cccc5c4OC(F)(F)C(F)(F)O5)CC3)cc2N1` [Example H3′, 7-{4-[4-(2,2,3,3-Tetrafluoro-2,3-dihydro-benzo[1,4]dioxin-5-yl)-piperazin-1-yl]-butoxy}-3,4-dihydro-1H-[1,6]naphthyridin-2-one] was tested, and the Emax at 1 µM (Table 2) was 22%.
In the case of `O=c1ccc2ccc(OCCCCN3CCN(c4cccc5c4OCCC5)CC3)nc2[nH]1` [Example B1′, 7-[4-(4-Chroman-8-yl-piperazin-1-yl)-butoxy]-1H-[1,8]naphthyridin-2-one], the Emax at 1 µM (Table 2) is reported as 22%.
For `CN1CCCc2c1cccc2N1CCN(CCCCOc2ccc3c(n2)NC(=O)CC3)CC1` [Example A32′, 7-{4-[4-(1-Methyl-1,2,3,4-tetrahydro-quinolin-5-yl)-piperazin-1-yl]-butoxy}-3,4-dihydro-1H-[1,8]naphthyridin-2-one], the Emax at 1 µM (Table 2) was 27%.
Work on `Cc1nc(OCCCCN2CCN(c3cccc4ccccc34)CC2)nc2[nH]c(=O)c(F)cc12` [Example H5, 6-Fluoro-4-methyl-2-[4-(4-naphthalen-1-yl-piperazin-1-yl)-butoxy]-8H-pyrido[2,3-d]pyrimidin-7-one] yielded an Emax at 1 µM (Table 1) of 34%.
`O=C1COc2ccc(OCCCCN3CCN(c4cccc(Cl)c4Cl)CC3)nc2N1` [Example G3, 6-{4-[4-(2,3-Dichloro-phenyl)-piperazin-1-yl]-butoxy}-4H-pyrido[3,2-b][1,4]oxazin-3-one] was tested, and the Emax at 1 µM (Table 1) was 25%.
`CC1(C)Cc2ccc(OCCCCN3CCN(c4cccc(Cl)c4Cl)CC3)nc2NC1=O` [Example D13, 7-{4-[4-(2,3-Dichloro-phenyl)-piperazin-1-yl]-butoxy}-3,3-dimethyl-3,4-dihydro-1H-[1,8]naphthyridin-2-one] was tested, and the Emax at 1 µM (Table 1) was 19%.
For `O=c1ccc2ccc(OCCCCN3CCN(c4cccc5sccc45)CC3)nc2[nH]1` [Example B25′, 7-[4-(4-Benzo[b]thiophen-4-yl-piperazin-1-yl)-butoxy]-1H-[1,8]naphthyridin-2-one], the Emax at 1 µM (Table 2) was 21%.
For `O=C1CCc2cccc(N3CCN(CCCCOc4ccc5ccc(=O)[nH]c5n4)CC3)c2N1` [Example B37′, 7-{4-[4-(2-Oxo-1,2,3,4-tetrahydro-quinolin-8-yl)-piperazin-1-yl]-butoxy}-1H-[1,8]naphthyridin-2-one], the Emax at 1 µM (Table 2) was 39%.
In the case of `CCc1c(Cl)cccc1N1CCN(CCCCOc2ccc3c(n2)NC(=O)CC3)CC1` [Example A29, 7-{4-[4-(3-Chloro-2-ethyl-phenyl)-piperazin-1-yl]-butoxy}-3,4-dihydro-1H-[1,8]naphthyridin-2-one], the Emax at 1 µM (Table 1) is reported as 20%.
With `O=c1ccc2cnc(OCCCCN3CCN(c4cccc5c4OC(F)(F)O5)CC3)cc2[nH]1` [Example H9′, 7-{4-[4-(2,2-Difluoro-benzo[1,3]dioxol-4-yl)-piperazin-1-yl]-butoxy}-1H-[1,6]naphthyridin-2-one] the Emax at 1 µM (Table 2) was 31%.
In the case of `Cc1ccc2cccc(N3CCN(CCCCOc4ncc5ccc(=O)[nH]c5n4)CC3)c2n1` [Example G9′, 2-{4-[4-(2-Methyl-quinolin-8-yl)-piperazin-1-yl]-butoxy}-8H-pyrido[2,3-d]pyrimidin-7-one], the Emax at 1 µM (Table 2) is reported as 21%.
`O=C1CCc2ccc(OCCCCN3CCC(c4cccc5ccccc45)CC3)nc2N1` [Example A64, 7-[4-(4-Naphthalen-1-yl-piperidin-1-yl)-butoxy]-3,4-dihydro-1H-[1,8]naphthyridin-2-one] showed an Emax at 1 µM (Table 1) of 36%.
`CC1(C)COc2c(cccc2N2CCN(CCCCOc3ccc4c(n3)NC(=O)CC4)CC2)C1=O` [Example A21′, 7-{4-[4-(3,3-Dimethyl-4-oxo-chroman-8-yl)-piperazin-1-yl]-butoxy}-3,4-dihydro-1H-[1,8]naphthyridin-2-one] showed an Emax at 1 µM (Table 2) of 24%.
`O=C1CCc2cc(Br)c(OCCCCN3CCN(c4cccc(Cl)c4Cl)CC3)nc2N1` [Example E7, 6-Bromo-7-{4-[4-(2,3-dichloro-phenyl)-piperazin-1-yl]-butoxy}-3,4-dihydro-1H-[1,8]naphthyridin-2-one] gave an Emax at 1 µM (Table 1) of 19%.
In the case of `CC(CCCN1CCN(c2cccc(Cl)c2Cl)CC1)Oc1ccc2c(n1)NC(=O)CC2` (stereo not drawn) [Example C5, 7-{4-[4-(2,3-Dichloro-phenyl)-piperazin-1-yl]-1-methyl-butoxy}-3,4-dihydro-1H-[1,8]naphthyridin-2-one], the Emax at 1 µM (Table 1) is reported as 40%.
For `O=C1CCc2cnc(OCCCCN3CCN(c4cccc5ccccc45)CC3)c(Br)c2N1` [Example I7, 8-Bromo-7-[4-(4-naphthalen-1-yl-piperazin-1-yl)-butoxy]-3,4-dihydro-1H-[1,6]naphthyridin-2-one], the Emax at 1 µM (Table 1) was 37%.
For `CC(=O)c1ccc2cccc(N3CCN(CCCCOc4ccc5c(n4)NC(=O)CC5)CC3)c2c1` [Example A78, 7-{4-[4-(7-Acetyl-naphthalen-1-yl)-piperazin-1-yl]-butoxy}-3,4-dihydro-1H-[1,8]naphthyridin-2-one], the Emax at 1 µM (Table 1) was 24%.
`Cc1cccc(N2CCN(CCCCCc3ccc4c(n3)NC(=O)CC4)CC2)n1` [Example C16, 7-{5-[4-(6-Methyl-pyridin-2-yl)-piperazin-1-yl]-pentyl}-3,4-dihydro-1H-[1,8]naphthyridin-2-one] gave an Emax at 1 µM (Table 1) of 34%.
Compound `O=C1CCc2ccc(OCCCCN3CCN(c4cccc5c4OC(F)(F)O5)CC3)nc2N1` [Example A19′, 7-{4-[4-(2,2-Difluoro-benzo[1,3]dioxol-4-yl)-piperazin-1-yl]-butoxy}-3,4-dihydro-1H-[1,8]naphthyridin-2-one] has an Emax at 1 µM (Table 2) of 40%.
`Cc1nc(OCCCCN2CCN(c3cccc(C(C)C)n3)CC2)nc2[nH]c(=O)ccc12` [Example H6, 2-{4-[4-(6-Isopropyl-pyridin-2-yl)-piperazin-1-yl]-butoxy}-4-methyl-8H-pyrido[2,3-d]pyrimidin-7-one] was tested, and the Emax at 1 µM (Table 1) was 42%.
`CC(C)Oc1ccccc1N1CCN(CCCCOc2ncc3ccc(=O)[nH]c3n2)CC1` [Example H2, 2-{4-[4-(2-Isopropoxy-phenyl)-piperazin-1-yl]-butoxy}-8H-pyrido[2,3-d]pyrimidin-7-one] was tested, and the Emax at 1 µM (Table 1) was 22%.
Work on `O=c1ccc2ccc(OCCCCN3CCN(c4cccc5cccc(F)c45)CC3)nc2[nH]1` [Example B50, 7-{4-[4-(8-Fluoro-naphthalen-1-yl)-piperazin-1-yl]-butoxy}-1H-[1,8]naphthyridin-2-one] yielded an Emax at 1 µM (Table 1) of 51%.
Compound `O=C1CCc2ccc(OCCCCN3CCN(c4cccc5c4CCCC5(F)F)CC3)nc2N1` [Example A59, 7-{4-[4-(5,5-Difluoro-5,6,7,8-tetrahydro-naphthalen-1-yl)-piperazin-1-yl]-butoxy}-3,4-dihydro-1H-[1,8]naphthyridin-2-one] has an Emax at 1 µM (Table 1) of 30%.
